Experimental findings from patent publication US20210024545A1, “SUBSTITUTED DIAZAHETERO-BICYCLIC COMPOUNDS AND THEIR USE” (Bayer Aktiengesellschaft, priority 2016, published 2021) are described below.

What all share (format): cell-based
Assay [1] concerns the target T1, human TASK-1 (Homo sapiens, UniProt O14649). Description: Inhibition of recombinant TASK-1 in stably transfected CHO cells, KCl-induced depolarization, voltage-sensitive dye (B-2). The settings on record: depolarization induced by 40 mM potassium chloride, some mean values from multiple determinations. On the set-up: expressed in transfected cells; host or cells: stably transfected CHO cells. In outline: (§1)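 Stably transfected CHO cells loaded with a voltage-sensitive membrane potential dye. Depolarization was induced with 40 mM KCl, and compound inhibition of it was read by fluorescence. IC50 is the concentration blocking half of the KCl-induced depolarization; some values are means of multiple independent determinations.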

The target of assay [2] is T2, human TASK-3 (Homo sapiens, UniProt Q9NPC2). Briefly: Inhibition of recombinant TASK-3 in stably transfected CHO cells, KCl-induced depolarization, voltage-sensitive dye (B-2). Also noted: expressed in transfected cells; host or cells: stably transfected CHO cells. To be noted: depolarization induced by 40 mM potassium chloride, some mean values from multiple determinations. The method in brief: as §1

The target in assay [3] is T1, human TASK-1. Briefly: Two-electrode voltage clamp analysis of human TASK-1 channel in Xenopus laevis oocytes (B-1). Also noted: expressed in transfected cells; host or cells: Xenopus laevis oocytes injected with cRNA. To be noted: Xenopus laevis oocytes injected with TASK-1 cRNA, 21-22° C. The method, then: (§2) B-1. In Vitro Electrophysiological Analysis of the Human TASK-1 and TASK-3 Channels via Two-Electrode Voltage Clamp Technique in Xenopus laevis Oocytes
(§3) Xenopus laevis oocytes were selected as described elsewhere by way of illustration [Decher et al., FEBS Lett. 492, 84-89 (2001)]. Subsequently, the oocytes were injected with 0.5-5 ng of a cRNA solution coding for TASK-1 or TASK-3. For the electrophysiological analysis of the channel proteins expressed in the oocytes, the two-electrode voltage clamp technique [Stühmer, Methods Enzymol. 207, 319-339 (1992)] was used. The measurements were conducted as described [Decher et al., FEBS Lett. 492, 84-89 (2001)] at room temperature (21-22° C.) using a Turbo TEC 10CD amplifier (NPI), recorded at 2 kHz and filtered with 0.4 kHz. Substance administration was performed using a gravitation-driven perfusion system. Here, the oocyte is located in a measuring chamber and exposed to the solution stream of 10 ml/min The level in the measuring chamber is monitored and regulated by sucking off the solution using a peristaltic pump.
Background: Two-electrode voltage clamp holds a large cell at a set potential and records current.

In assay [4] the target is T2, human TASK-3. Description: Two-electrode voltage clamp analysis of human TASK-3 channel in Xenopus laevis oocytes (B-1). Also noted: expressed in transfected cells; host or cells: Xenopus laevis oocytes injected with cRNA. The settings on record: Xenopus laevis oocytes injected with TASK-3 cRNA, 21-22° C. The method, then:
as §2, §3

Assay [5] addresses T1, human TASK-1. Briefly: Washout rate after binding to the human TASK-1 channel, two-electrode voltage clamp in Xenopus laevis oocytes (B-4). Also noted: expressed in transfected cells; host or cells: Xenopus laevis oocytes injected with cRNA transcribed from the pSGEM vector. To be noted: TASK-1 inhibited beforehand by about 40% at the concentration of Table 3 (30-80 nM); restoration of current recorded over at least one hour. From the text:
The washout rate is defined as the washout of a compound according to the invention from the TASK-1 channel in % h^−1, measured by means of electrophysiological analysis on TASK-1-expressing Xenopus laevis oocytes via the two-electrode voltage clamp technique according to the description in section B-4.
B-4. In Vitro Electrophysiological Analysis of the Washout Rate of Compounds After Binding to the Human TASK-1 Channel via Two-Electrode Voltage Clamp Technique in Xenopus laevis Oocytes
Xenopus laevis oocytes were obtained from animals that had been anaesthetized with tricaine. Ovaries were treated with collagenase (1 mg/ml, Worthington, type II), stored in OR2 solution (82.5 mM NaCl, 2 mM KC1, 1 mM MgCl2, 5 mM HEPES; pH 7.4) for 120 min and then kept in the ND96 standard solution (96 mM NaCl, 2 mM KC1, 1.8 mM CaCl2, 1 mM MgCl2, 5 mM HEPES; pH 7.5) with additional sodium pyruvate (275 mg/l), theophylline (90 mg/1) and gentamicin (50 mg/1) at 18° C. hTASK-1 and hTASK-3 were subcloned into the pSGEM vector, and cRNA was produced after linearization with NHEI and in vitro transcription with T7 polymerase. Oocytes were injected individually with 5-20 ng of cRNA solution that encodes hTASK-1. Standard two-electrode voltage clamp recordings [Stühmer, Methods Enzymol. 207, 319-339 (1992)] were conducted at room temperature (21-22° C.) with a Turbo-TEC-10CD amplifier (NPI) as described above [Decher et al., FEBS Lett. 492, 84-89 (2001)]. The measurement interval was 2 kHz, and the data were filtered at 0.4 kHz. Substances were applied in a gravity-driven manner via the bath solution, using ND96. In summary, Xenopus laevis oocytes were selected as described above, injected with TASK-1 cRNA and subjected to an electrophysiological analysis via the two-electrode voltage clamp technique.
The TASK-1 channels were inhibited beforehand by a value of about 40% by administration of one of the compounds of the invention. The concentrations shown in Table 3 below were established here, which had been ascertained beforehand by determining the IC50 values in question. Subsequently, the restoration of the TASK-1-related membrane current was recorded in the voltage clamp over at least one hour. This restoration is caused by the washout of the compound in question from the TASK-1 channel
At least 6 oocytes were examined for every compound. The voltage clamp measurements took a total of at least 1.5 hours (administration of the inhibitor plus at least one subsequent hour of washout measurement).

T2 sequence (Q9NPC2 whole entry): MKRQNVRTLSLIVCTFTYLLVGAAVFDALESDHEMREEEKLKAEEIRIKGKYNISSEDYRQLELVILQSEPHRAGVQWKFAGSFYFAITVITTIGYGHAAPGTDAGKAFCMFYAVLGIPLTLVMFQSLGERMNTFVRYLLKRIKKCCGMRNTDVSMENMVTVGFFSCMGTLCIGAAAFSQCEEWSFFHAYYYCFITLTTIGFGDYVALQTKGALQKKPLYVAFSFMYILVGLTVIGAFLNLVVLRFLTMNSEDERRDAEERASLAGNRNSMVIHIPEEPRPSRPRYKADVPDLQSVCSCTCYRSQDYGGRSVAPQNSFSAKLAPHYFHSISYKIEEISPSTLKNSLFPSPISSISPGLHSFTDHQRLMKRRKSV
T1 sequence (O14649 whole entry): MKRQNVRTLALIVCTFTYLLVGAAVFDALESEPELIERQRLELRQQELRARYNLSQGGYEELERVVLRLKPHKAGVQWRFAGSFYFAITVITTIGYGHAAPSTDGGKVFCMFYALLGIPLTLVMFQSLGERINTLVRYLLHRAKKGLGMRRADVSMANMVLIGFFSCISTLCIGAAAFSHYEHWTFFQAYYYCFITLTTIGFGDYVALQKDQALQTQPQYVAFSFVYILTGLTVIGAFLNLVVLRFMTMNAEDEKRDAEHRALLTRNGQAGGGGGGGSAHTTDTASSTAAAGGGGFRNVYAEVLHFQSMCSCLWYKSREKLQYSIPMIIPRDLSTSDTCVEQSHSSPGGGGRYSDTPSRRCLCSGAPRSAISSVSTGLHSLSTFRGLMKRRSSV

As a reminder, the IC50 is the concentration at which inhibition is half-maximal. Turning to `COc1cccc(C(=O)N2C[C@@H]3CC[C@H]2CN3Cc2c(-c3ccc(Cl)cc3)nc3ccccn23)n1` (single isomer, unassigned; enantiomer 1) [Example 21], the IC50 at human TASK-1 [1] was found to be 0.24 µM; on human TASK-3 [2], 0.06 µM; on human TASK-1 [3], 0.0273 ± 0.0054 µM; at human TASK-3 [4], 0.0163 ± 0.0009 µM. In addition, on human TASK-1 [5], the Washout rate stood at 40 % h^−1.
The matching figures for `COc1cccc(C(=O)N2CC3CCC2CN3Cc2c(-c3ccc(Cl)cn3)nc3ccccn23)n1` (single isomer, unassigned; enantiomer 1) [Example 26, (−)-(5-{[2-(5-Chloropyridin-2-yl)imidazo[1,2-a]pyridin-3-yl]methyl}-2,5-diazabicyclo[2.2.2]oct-2-yl)(6-methoxypyridin-2-yl)methanone (enantiomer 1)]: 0.69 µM, 0.042 µM, 0.054 ± 0.0161 µM, 0.012 ± 0.0033 µM and 17 % h^−1.
